This note sets out measurements from the supplement of paper PMC8498969.

A value given as a limit tells only on which side of the number the result lay.

In assay [1] the test system is HEK293. Nature of the assay: IC50 for inhibition of ZIKV NS1 production. As to the method:
(§1)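 HEK293 cells in 1536-well plates were pre-treated with compound for 1 h, infected with ZIKV (MOI 1) for 24 h, and NS1 antigen (intra- plus extracellular) was measured by TR-FRET. Confirmation used 11-point 1:3 dilutions, and IC50 and maximal inhibition were fitted in GraphPad Prism.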

In assay [2] the test system is HEK293. The assay is described as follows: cytotoxicity IC50 (ATP content, uninfected cells); higher = less cytotoxic. To be noted: infection: none.
The test system of assay [3] is HEK293. Nature of the assay: maximal inhibition of ZIKV NS1 production (% inhibition); higher = stronger antiviral effect. As for the experimental part: as §1

On to `CC1(C(=O)O)C2CCC(O2)C1(C)C(=O)O` (centres undefined), for which, in assay [1], the IC50 (as a rule, the concentration needed to halve the response being measured) worked out at 2.6 µM. Also, the “cytotoxicity IC50” value in assay [2] was over 100 µM. Besides, the maximal inhibition in assay [3] stood at 105.

In the case of `O=C1NCCN1CCN1CCC(c2cn(-c3ccc(F)cc3)c3ccc(Cl)cc23)CC1`, the IC50 in assay [1] was 7.4 µM. Also, the “cytotoxicity IC50” value in assay [2] is 6.5 µM. The maximal inhibition in assay [3] amounted to 99.

In assay [1], `CCc1c2c(nc3ccc(O)cc13)-c1cc3c(c(=O)n1C2)COC(=O)[C@]3(O)CC` registered a half-maximal inhibitory concentration (IC50) of 0.011 µM. Also, in assay [2], the “cytotoxicity IC50” value was over 100 µM. In assay [3], this molecule showed a maximal inhibition of 61.

The molecule `C#CCC(Cc1cnc2nc(N)nc(N)c2n1)c1ccc(C(=O)N[C@@H](CCC(=O)O)C(=O)O)cc1` (some centres undefined) came in with an IC50 in assay [1] of 0.45 µM. Also, the “cytotoxicity IC50” value in assay [2] was found to be 0.46 µM. In addition, the maximal inhibition in assay [3] stood at 101.

In turn, `COCC[n+]1c2c(n(Cc3cnccn3)c1C)C(=O)c1ccccc1C2=O` had an IC50 in assay [1] of 0.018 µM. In assay [2], the “cytotoxicity IC50” value turned out to be 0.03 µM. Moreover, the maximal inhibition in assay [3] is 104.

For `CCOC(=O)C1=C(C)NC2=C(C(=O)CC(C)(C)C2)C1c1ccc(-c2ccccc2)cc1` (centres undefined), the IC50 in assay [1] was determined as 17 µM. Also, the “cytotoxicity IC50” value in assay [2] is over 100 µM. The maximal inhibition in assay [3] was found to be 89.

The molecule `CC(C)[C@]12O[C@H]1[C@@H]1O[C@]13[C@]1(O[C@H]1C[C@H]1C4=C(CC[C@@]13C)C(=O)OC4)[C@@H]2O` displayed a concentration for half-maximal inhibition (IC50) in assay [1] of 0.47 µM. The “cytotoxicity IC50” value in assay [2] was over 100 µM. This molecule showed a maximal inhibition in assay [3] of 73.

In turn, `O=C1NC(=O)/C(=C/c2ccc3nccc(-c4ccncc4)c3c2)S1` came in with an IC50 in assay [1] of 1.9 µM. Also, in assay [2], the “cytotoxicity IC50” value stood at 1.4 µM. Besides, the maximal inhibition in assay [3] came out at 82.

`NC1(c2ccc(-c3nc4ccn5c(=O)[nH]nc5c4cc3-c3ccccc3)cc2)CCC1` gave a concentration for half-maximal inhibition (IC50) in assay [1] of 23 µM. Also, the “cytotoxicity IC50” value in assay [2] is 4.4 µM. Moreover, in assay [3], the maximal inhibition amounted to 103.

In the case of `CC(C)C[C@H](NC(=O)CNC(=O)c1cc(Cl)ccc1Cl)B1OC(=O)C(CC(=O)O)(CC(=O)O)O1`, the half-inhibitory concentration (IC50) in assay [1] amounted to 0.2 µM. Besides, the “cytotoxicity IC50” value in assay [2] came out at 1.6 µM. The molecule further returned a maximal inhibition in assay [3] of 94.

In turn, `C#C[C@]1(OC(C)=O)CC[C@H]2[C@@H]3CCC4=C/C(=N/O)CC[C@@H]4[C@H]3CC[C@@]21CC` gave an IC50 in assay [1] of 43 µM. Also, the “cytotoxicity IC50” value in assay [2] was over 100 µM. This molecule returned a maximal inhibition in assay [3] of 48.

Turning to `CC(NCc1ccc2c(c1)nc(NC(=O)c1ccc(-c3cn[nH]c3)s1)n2CC(C)(C)O)C(C)(C)C` (centres undefined), the IC50 in assay [1] stood at 9.6 µM. Also, the “cytotoxicity IC50” value in assay [2] is over 100 µM. In assay [3], this molecule registered a maximal inhibition of 101.

`Cc1ccc(C(=O)N(CCCN)[C@@H](c2nc3cc(Cl)ccc3c(=O)n2Cc2ccccc2)C(C)C)cc1` returned a half-maximal inhibitory concentration (IC50) in assay [1] of 0.067 µM. In addition, the “cytotoxicity IC50” value in assay [2] stood at 37 µM. This molecule also came in with a maximal inhibition in assay [3] of 98.

Turning to `OC[C@H]1O[C@@H](n2cnc3c(S)ncnc32)[C@H](O)[C@@H]1O`, in assay [1], the half-maximal inhibitory concentration (IC50) is 8 µM. In addition, in assay [2], the “cytotoxicity IC50” value stood at 4.1 µM. The molecule also registered a maximal inhibition in assay [3] of 99.

In turn, `C1CCC(C(CC2CCCCN2)C2CCCCC2)CC1` (centres undefined) returned an IC50 in assay [1] of 45 µM. The “cytotoxicity IC50” value in assay [2] is 50 µM. The same molecule gave a maximal inhibition in assay [3] of 98.

In assay [1], `CO[C@@]12[C@H](COC(N)=O)C3=C(C(=O)C(C)=C(N)C3=O)N1C[C@@H]1N[C@@H]12` had an IC50 of 2.7 µM. Further, the “cytotoxicity IC50” value in assay [2] came out at 73 µM. Besides, in assay [3], the maximal inhibition came to 97.

On to `Cc1nc(N)nc(N)c1-c1ccc(Cl)c(Cl)c1`, for which, in assay [1], the IC50 amounted to 2 µM. The “cytotoxicity IC50” value in assay [2] is 1.5 µM. This molecule displayed a maximal inhibition in assay [3] of 102.

On to `CN1CCN(Cc2ccc(NC(=O)Nc3ccc(Oc4cc(NC(=O)C5CC5)ncn4)cc3)cc2C(F)(F)F)CC1`, for which the IC50 in assay [1] was 2.4 µM. The “cytotoxicity IC50” value in assay [2] is over 100 µM. Further, the maximal inhibition in assay [3] is 104.

The molecule `O=c1[nH]c(=O)n([C@H]2C[C@H](O)[C@@H](CO)O2)cc1F` showed an IC50 in assay [1] of 0.92 µM. Also, the “cytotoxicity IC50” value in assay [2] was found to be 60 µM. In assay [3], this molecule showed a maximal inhibition of 98.

In turn, `O=C1C(Cl)=C(NCCN2CCOCC2)C(=O)c2ncccc21` yielded an IC50 in assay [1] of 16 µM. For the same molecule, the “cytotoxicity IC50” value in assay [2] stood at 20 µM. In addition, the maximal inhibition in assay [3] amounted to 104.

Regarding `CC(=O)Nc1ccc([C@H](C)C(=O)Nc2ncc(C(C)C)s2)cc1`, the half-inhibitory concentration (IC50) in assay [1] is 7.4 µM. Also, the “cytotoxicity IC50” value in assay [2] was over 100 µM. In assay [3], this molecule displayed a maximal inhibition of 90.

Molecule `C[C@H](NCc1ccc2c(c1)nc(NC(=O)c1ccc(-c3cn[nH]c3)s1)n2CCc1ccccc1)C(C)(C)C` returned an IC50 in assay [1] of 17 µM. The “cytotoxicity IC50” value in assay [2] is over 100 µM. In assay [3], this molecule gave a maximal inhibition of 98.

As for `CC[C@]1(O)C[C@@H]2CN(CCc3c([nH]c4ccccc34)[C@@](C(=O)OC)(c3cc4c(cc3OC)N(C)[C@H]3[C@@](O)(C(N)=O)[C@H](O)[C@]5(CC)C=CCN6CC[C@]43[C@@H]65)C2)C1`, the 50% inhibitory concentration (IC50) in assay [1] was 0.66 µM. For the same molecule, in assay [2], the “cytotoxicity IC50” value was over 100 µM. The maximal inhibition in assay [3] stood at 66.
